Measurements reported in patent publication US20120309699A1, “COMPOUNDS HAVING ANTI-INFLAMMATORY ACTIVITY” (Consejo Superior de Investigaciones Cientificas (CSIC), priority 2009, published 2012).

What was measured:
haptoglobin = assay: Systemic inflammation marker haptoglobin (DSS model); type: in vivo, mice; conditions: vs DSS group; HED 10 mg
Experimental: (§1) A model for intestinal inflammation based on the administration of DSS (sodium dextran sulfate) to C57BL/6 mice was used. At the present time there is no consensus about which overall is the best model for experimental colitis. The DSS model has been widely used because it has clinical, morphological and analytical characteristics which up to a point are similar to those specific to patients with ulcerative colitis or Crohn's disease.
(§2) The in vivo inflammation test was carried out using duplicates separated by a number of months. In each test each group of animals (n=8) was fed a standard diet supplemented with 2.3 mg/day/kg (animal weight) of each of the compounds, depending upon the group. This dose assumes the ingestion of 0.05 mg/day (50 μg/day) per mouse (having a mean weight of 22 grams). This dose extrapolated to a human being is equivalent to 10 mg in an adult weighing 70 kg; using the formula HED (human equivalent dose)=animal dose in mg/kg×(animal weight kg/human weight in kg)^0.33.
(§3) In each test the mice were fed for 3 weeks during which 1% DSS was included in their drink. The DSS was maintained for 8 days (and the same food as from the start). Then the DSS was withdrawn and the animals were allowed to recover for another 6 days (again with the same food).
(§4) • Monitoring of weight, food and drink ingestion. The mice in all groups were individually monitored, with weight, quantity of food ingested and water drunk each day being monitored throughout the experimental test. • Blood and water in feces. The water content of feces, as an indication of diarrhea, was evaluated using the difference in weight following evaporation in a stove. Blood was measured using reactive strips based on the guaiacol-peroxidase reaction (HealthCare Diagnosis Inc.). […] The reaction was measured using a scale from 0 (negative result) to 4 (most intense color change). • Length of colon. After sacrifice the colon was obtained from each mouse, extended and measured. […] This was evaluated by spectrophotometry at 460 nm using O-dianisidine reagent and hydrogen peroxide. The change in absorbance at 460 nm was monitored over 10 minutes in a V-630 spectrophotometer (Jasco, Tokyo, Japan). MPO activity was expressed as mU of activity/mg of fresh tissue, comparing the increase in absorbance with a standard straight line obtained using leukocyte myeloperoxidase (Sigma). • Prostaglandins in colonic mucosa. Levels of PGE2 were measured in colonic mucosa homogenates using an immunoenzyme method using a Cayman Chem. kit (USA). • “Antibody array”. […] The signal was detected by chemoluminescence. […] Signal intensities (densitometry) were analyzed using ScanAlyze software. […] The changes in cytokine levels were expressed as mean±SD in arbitrary density units. […]

Prostaglandin E2 = assay: Prostaglandins in colonic mucosa (DSS model); type: in vivo, mice; conditions: after DSS; HED 10 mg
Experimental: as §1
(§5) The in vivo inflammation test was carried out using duplicates separated by a number of months. In each test each group of animals (n=8) was fed a standard diet supplemented with 2.3 mg/day/kg (animal weight) of each of the compounds, depending upon the group. […]
(§6) • Monitoring of weight, food and drink ingestion. The mice in all groups were individually monitored, with weight, quantity of food ingested and water drunk each day being monitored throughout the experimental test. • Blood and water in feces. The water content of feces, as an indication of diarrhea, was evaluated using the difference in weight following evaporation in a stove. Blood was measured using reactive strips based on the guaiacol-peroxidase reaction (HealthCare Diagnosis Inc.). […] The reaction was measured using a scale from 0 (negative result) to 4 (most intense color change). • Length of colon. After sacrifice the colon was obtained from each mouse, extended and measured. […]

Myeloperoxidase (MPO) = assay: Myeloperoxidase activity in colonic mucosa (DSS model); type: in vivo, mice; conditions: after DSS; HED 10 mg
Experimental: as §1, §5, §6

[1] = system: TNFR1 (Tumor necrosis factor receptor, CD120a); assay: Antibody array in colonic mucosa: TNFR1 (DSS model); type: in vivo, mice; conditions: after 8 days DSS, without recovery period; HED 10 mg
Experimental: as §1, §5, §6

enterobacteria = assay: Microbiota counts in feces: enterobacteria; type: in vivo, mice; conditions: after administration of DSS; HED 10 mg
Experimental: as §1
as §2, with “kg)^0.33. […]” for “kg)^0.33.”
• Monitoring of weight, food and drink ingestion. The mice in all groups were individually monitored, with weight, quantity of food ingested and water drunk each day being monitored throughout the experimental test. • Blood and water in feces. The water content of feces, as an indication of diarrhea, was evaluated using the difference in weight following evaporation in a stove. Blood was measured using reactive strips based on the guaiacol-peroxidase reaction (HealthCare Diagnosis Inc.). […] The reaction was measured using a scale from 0 (negative result) to 4 (most intense color change). • Length of colon. After sacrifice the colon was obtained from each mouse, extended and measured. […] This was evaluated by spectrophotometry at 460 nm using O-dianisidine reagent and hydrogen peroxide. The change in absorbance at 460 nm was monitored over 10 minutes in a V-630 spectrophotometer (Jasco, Tokyo, Japan). […] Levels of PGE2 were measured in colonic mucosa homogenates using an immunoenzyme method using a Cayman Chem. kit (USA). • “Antibody array”. […] The signal was detected by chemoluminescence. […]

lactobacilli = assay: Microbiota counts in feces: lactobacilli; type: in vivo, mice; conditions: pre-treatment, maintained after DSS; HED 10 mg
Experimental: as §1, §5, §6

bifidobacteria = assay: Microbiota counts in feces: bifidobacteria; type: in vivo, mice; conditions: after administration of DSS; HED 10 mg
Experimental: as §1, §2, §3, §4

fibrinogen = assay: Systemic inflammation marker fibrinogen (DSS model); type: in vivo, mice; conditions: vs DSS group; HED 10 mg
Experimental: as §1, §2, §3, §4

[2] = system: Listeria monocytogenes Scott A; assay: Adhesion of L. monocytogenes to Caco-2 cells; type: cell-based, human; conditions: Caco-2, 25 μM/well; in comparison with resveratrol and the other derivatives
Experimental: (§7) We used two cell models for colon cancer to evaluate the anti-adhesion capacity of compounds derived from resveratrol against pathogenic bacteria in food: Caco-2 (a model frequently used to measure the adhesion of microorganisms) and HT-29 (a model frequently used to measure immune response to infections by enteropathogens). Caco-2 and HT-29 cells were grown in EMEM and DMEM respectively, for which 24 well plates were used at 37° C., 5% CO2, 95% air until a single layer of confluent epithelium formed (cell concentration per well 2×10^5 and 6×10^5 respectively). Pathogenic bacteria (E. coli O157, Salmonella and Listeria monocytogenes Scott A) were placed in contact with the various compounds derived from resveratrol for 1 hour and subsequently the bacteria together with the different compounds in a concentration of 25 μM/well were inoculated on the cell cultures, incubating the plates for 2 hours at 37° C., 5% CO2, 95% air. The plates were then washed 3 times with 1 ml of sterile PBS and 1 ml of distilled water with 20% of glycerol was added, and they were frozen at −70° C. to lyse the epithelial cells. […] Concentrations of the various derivatives tested were detected in the digestive tracts of experimental animals and therefore the test lay within the range of physiologically achievable concentrations.

clostridia = assay: Microbiota counts in feces: clostridia; type: in vivo, mice; conditions: pre-treatment, maintained after DSS; HED 10 mg
Experimental: as §1, §5, §6

Salmonella = assay: Adhesion of Salmonella to Caco-2 cells; type: cell-based, human; conditions: Caco-2, 25 μM/well; in comparison with resveratrol and the other derivatives
Experimental: as §7

Compound	Blood haptoglobin levels (haptoglobin)	Production of prostaglandins (PGE2) in colonic mucosa (Prostaglandin E2)	Myeloperoxidase activity in colonic mucosa (Myeloperoxidase (MPO))	Level of TNFR1 in colonic mucosa [1]	Enterobacteria count in feces (enterobacteria)	Population of lactobacilli in feces (lactobacilli)	Bifidobacteria count in feces (bifidobacteria)	Blood fibrinogen levels (fibrinogen)	Anti-adhesion efficacy in respect of L. monocytogenes [2]	Population of clostridia in feces (clostridia)	Anti-adhesion efficacy in respect of Salmonella (Salmonella)
CCCC(=O)OCC1OC(Oc2cc(O)cc(/C=C/c3ccc(O)cc3)c2)C(O)C(O)C1O [BUT, trans-resveratrol-3-O-(6′-O-butanoyl)-β-D-glucopyranoside]	most notable differences	best results	most obvious fall	values are similar to those for the control mice	clear reduction	increases the population	continued the upward trend	most notable differences	greater anti-adhesion efficacy	increases the population	greater anti-adhesion efficacy
CCCCCCCC(=O)OCC1OC(Oc2cc(O)cc(/C=C/c3ccc(O)cc3)c2)C(O)C(O)C1O [OCT, trans-resveratrol-3-O-(6′-O-octanoyl)-β-D-glucopyranoside]	most notable differences	best results	most obvious fall	values are similar to those for the control mice	clear reduction	increases the population	continued the upward trend	most notable differences	greater anti-adhesion efficacy	increases the population	greater anti-adhesion efficacy
